EP0672658B1, “Antithrombotic agents” (priority 1994, dated 1995)
Structures can show the parent of a compound that is named as a salt.

Columns and labels:
[1] = molecular target: Human Thrombin (Homo sapiens, UniProt P00734); experiment: biochemical; settings: read-out: Kass Human Thrombin (converted)
[2] = molecular target: factor Xa (Homo sapiens, UniProt P00742); experiment: biochemical; settings: read-out: Kass Xa (converted)
Experimental: (§1) By substantially following the procedures described above for human thrombin, and using other human blood coagulation system serine proteases and proteases of the fibrinolytic system with the appropriate chromogenic substrates, identified below, selectivity of the compounds of the present invention with respect to the coagulation factor serine proteases and with respect to the fibrinolytic system serine proteases are evaluated as well as their substantial lack of interference with serine proteases of the fibrinolytic system. Thrombin inhibitors preferably should spare fibrinolysis induced by urokinase, tissue plasminogen activator (t-PA) and streptokinase. This would be important to the therapeutic use of such agents as an adjunct to streptokinase, t-PA or urokinase thrombolytic therapy and to the use of such agents as an endogenous fibrinolysis-sparing (with respect to t-PA and urokinase) antithrombotic agent. In addition to the lack of interference with the amidase activity of the fibrinolytic proteases, such fibrinolytic system sparing can be studied by the use of human plasma clots and their lysis by the respective fibrinolytic plasminogen activators.
Human factors X, Xa, IXa, XIa, and XIIa are purchased from Enzyme Research Laboratories, South Bend, Indiana; human urokinase from Leo Pharmaceuticals, Denmark; and recombinant activated Protein C (aPC) is prepared at Eli Lilly and Co. substantially according to U.S. Patent 4,981,952. Chromogenic substrates: N-Benzoyl-Ile-Glu-Gly-Arg-p-nitroanilide (for factor Xa); N-Cbz-D-Arg-Gly-Arg-p-nitroanilide (for factor IXa assay as the factor Xa substrate); Pyroglutamyl-Pro-Arg-p-nitroanilide (for Factor XIa and for aPC); H-D-Pro-Phe-Arg-p-nitroanilide (for factor XIIa); and Pyroglutamyl-Gly-Arg-p-nitroanilide (for urokinase); are purchased from KabiVitrum, Stockholm, Sweden, or from Midwest Biotech, Fishers, Indiana. Bovine trypsin is purchased from Worthington Biochemicals, Freehold, New Jersey, and human plasma kallikrein from Kabi Vitrum, Stockholm, Sweden. Chromogenic substrate H-D-Pro-Phe-Arg-p-nitroanilide for plasma kallikrein is purchased from Kabi Vitrum, Stockholm, Sweden. N-Benzoyl-Phe-Val-Arg-p-nitroanilide, the substrate for human thrombin and for trypsin, is synthesized according to procedures described above for the compounds of the present invention, using known methods of peptide coupling from commercially available reactants or purchased from Midwest Biotech, Fishers, Indiana.

[3] = molecular target: T1, Trypsin (Bos taurus, UniProt P00760); experiment: biochemical; parameters: species or system Bovine; settings: read-out: Kass Trypsin (converted)
T1 sequence (P00760 24-246): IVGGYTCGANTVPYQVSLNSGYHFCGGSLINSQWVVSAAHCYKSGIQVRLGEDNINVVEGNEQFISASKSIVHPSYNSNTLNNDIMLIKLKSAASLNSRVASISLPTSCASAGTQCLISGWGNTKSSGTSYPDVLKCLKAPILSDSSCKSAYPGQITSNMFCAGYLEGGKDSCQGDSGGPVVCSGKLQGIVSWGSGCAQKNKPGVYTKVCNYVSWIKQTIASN
In short: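 Bovine trypsin and human factor Xa amidase activity measured chromogenically, following the human thrombin procedure. Substrates: N-Benzoyl-Ile-Glu-Gly-Arg-p-nitroanilide for factor Xa and N-Benzoyl-Phe-Val-Arg-p-nitroanilide for trypsin. Used for selectivity profiling.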

[4] = molecular target: T2, Plasmin (Homo sapiens, UniProt P00747); experiment: biochemical; settings: read-out: Kass Plasmin (converted)
T2 construct: Human plasmin is purchased; purchased Boehringer Mannheim, Indianapolis, Indiana
T2 sequence (P00747 581-810 limits assumed): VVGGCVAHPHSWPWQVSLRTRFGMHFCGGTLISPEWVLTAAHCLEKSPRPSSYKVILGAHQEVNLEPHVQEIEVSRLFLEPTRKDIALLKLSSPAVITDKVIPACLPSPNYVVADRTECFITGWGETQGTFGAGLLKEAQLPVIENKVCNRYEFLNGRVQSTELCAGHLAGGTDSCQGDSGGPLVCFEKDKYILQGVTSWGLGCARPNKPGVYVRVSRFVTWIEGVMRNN
T2 sequence (P00747 97-580 partner limits assumed): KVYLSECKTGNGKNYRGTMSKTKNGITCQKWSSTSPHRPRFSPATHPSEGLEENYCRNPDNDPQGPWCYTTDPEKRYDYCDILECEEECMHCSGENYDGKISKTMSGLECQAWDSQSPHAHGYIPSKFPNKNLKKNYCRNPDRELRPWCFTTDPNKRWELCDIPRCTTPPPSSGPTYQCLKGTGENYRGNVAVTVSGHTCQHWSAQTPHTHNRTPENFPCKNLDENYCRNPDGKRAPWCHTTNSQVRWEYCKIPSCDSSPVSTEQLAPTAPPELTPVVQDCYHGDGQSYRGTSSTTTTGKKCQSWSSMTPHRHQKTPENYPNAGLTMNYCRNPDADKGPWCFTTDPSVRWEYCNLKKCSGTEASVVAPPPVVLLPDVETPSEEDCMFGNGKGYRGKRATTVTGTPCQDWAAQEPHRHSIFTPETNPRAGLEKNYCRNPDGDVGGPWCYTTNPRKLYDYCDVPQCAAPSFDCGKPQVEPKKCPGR
Experimental: as §1
(§2) Human plasmin is purchased from Boehringer Mannheim, Indianapolis, Indiana; nt-PA is purchased as single chain activity reference from American Diagnostica, Greenwich, Connecticut; modified-t-PA6 (mt-PA6) is prepared at Eli Lilly and Company by procedure known in the art (See, Burck, et al., J. Biol. Chem., 265, […] (1990). Plasmin chromogenic substrate H-D-Val-Leu-Lys-p-nitroanilide and tissue plasminogen activator (t-PA) substrate H-D-Ile-Pro-Arg-p-nitroanilide are purchased from Kabi Vitrum, Stockholm, Sweden.

[5] = molecular target: t-PA (Homo sapiens, UniProt P00750); experiment: biochemical; settings: read-out: Kass t-PA (converted)
Chain of t-PA (P00750 36-562): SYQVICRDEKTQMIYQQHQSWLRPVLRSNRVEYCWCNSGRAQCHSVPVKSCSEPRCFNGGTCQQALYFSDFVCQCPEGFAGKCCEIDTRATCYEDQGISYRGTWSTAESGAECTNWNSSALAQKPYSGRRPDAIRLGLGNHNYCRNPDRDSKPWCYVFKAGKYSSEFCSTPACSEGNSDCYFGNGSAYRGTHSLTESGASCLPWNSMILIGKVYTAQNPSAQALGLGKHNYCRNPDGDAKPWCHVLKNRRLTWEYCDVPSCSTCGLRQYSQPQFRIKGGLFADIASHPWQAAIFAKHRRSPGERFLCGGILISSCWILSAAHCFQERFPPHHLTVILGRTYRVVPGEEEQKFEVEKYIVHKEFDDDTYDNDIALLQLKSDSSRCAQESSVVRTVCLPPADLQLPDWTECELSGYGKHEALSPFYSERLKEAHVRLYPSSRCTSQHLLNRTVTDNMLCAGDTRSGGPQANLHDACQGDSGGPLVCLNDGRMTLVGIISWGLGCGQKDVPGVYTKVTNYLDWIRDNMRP
Experimental: as §1, §2

[6] = test system: human or animal plasma; experiment: Anticoagulation determination in plasma: thrombin time (TT); type: biochemical; settings: concentration doubling thrombin time
In short: (§3)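 Compounds spiked over a concentration range into citrated human, dog or rat plasma. PT used Thromboplastin-C; APTT used Actin reagent 120 s then 0.02 M CaCl2; TT used bovine thrombin 10 NIH units/mL. Concentration doubling clotting time estimated by linear extrapolation.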

[7] = test system: human or animal plasma; experiment: Anticoagulation determination in plasma: activated partial thromboplastin time (APTT); type: biochemical; settings: concentration doubling activated partial thromboplastin time
In short: as §3

[8] = test system: human or animal plasma; experiment: Anticoagulation determination in plasma: prothrombin time (PT); type: biochemical; settings: concentration doubling prothrombin time
In short: as §3

Chain of factor Xa (P00742 235-488 limits assumed): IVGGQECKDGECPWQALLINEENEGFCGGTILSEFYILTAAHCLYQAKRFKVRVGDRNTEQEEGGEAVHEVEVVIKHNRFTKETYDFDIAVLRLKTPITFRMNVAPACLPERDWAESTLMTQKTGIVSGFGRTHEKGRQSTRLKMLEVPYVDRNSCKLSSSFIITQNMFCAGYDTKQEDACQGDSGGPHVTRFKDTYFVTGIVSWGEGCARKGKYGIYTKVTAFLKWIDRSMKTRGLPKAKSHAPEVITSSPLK
Chain of factor Xa (P00742 41-179 partner limits assumed): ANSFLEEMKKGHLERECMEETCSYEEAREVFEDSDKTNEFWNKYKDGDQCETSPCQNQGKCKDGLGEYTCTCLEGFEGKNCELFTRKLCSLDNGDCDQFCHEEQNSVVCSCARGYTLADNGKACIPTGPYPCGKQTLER

SMILES | Kd [1] | Kd [2] | Kd [3] | Kd [4] | Kd [5] | Human Plasma Anticoagulation 2x Clotting time (ng/mL) TT [6] | Human Plasma Anticoagulation 2x Clotting time (ng/mL) APTT [7] | Human Plasma Anticoagulation 2x Clotting time (ng/mL) PT [8]
CCS(=O)(=O)N[C@@H](C(=O)N1[C@H](C(=O)NCc2ccc(C(=N)N)cc2)C[C@@H]2CCCC[C@@H]21)c1ccccc1 (relative stereo) [Example 44, EtSO2-Phg-cis-Ohi-p-NHCH2C6H4C(NH)NH2. HCl] | 0.00159 µM | 1.52 µM | 0.000385 µM | 0.556 µM | 25 µM | 4. ng/mL | 100 ng/mL | 170 ng/mL
NCc1cccc(CNC(=O)[C@@H]2CCCN2C(=O)[C@H](N)Cc2ccccc2)c1 [Example 11, D-Phe-Pro-m-NHCH2C6H4CH2NH2·HCl] | 15.6 µM | 14700 µM | 278 µM | 167 µM | > 1000 µM | 8,800 ng/mL |  | 
NC[C@H]1CC[C@H](CNC(=O)[C@@H]2CCCN2C(=O)[C@H](N)Cc2ccccc2)CC1 [Example 12, D-Phe-Pro-NHCH2-trans-4-(aminomethyl)cyclohexane·HCl] | 2.27 µM | 23800 µM | 455 µM | 1150 µM | 23800 µM | 1,700 ng/mL |  | 
Nc1ccc(CNC(=O)[C@@H]2CCCN2C(=O)[C@H](N)Cc2ccccc2)cc1 [Example 13, D-Phe-Pro-p-NHCH2C6H4NH2·HCl] | 2.04 µM | 1020 µM | 1520 µM | 9090 µM | > 1000 µM | 660 ng/mL |  | 
Nc1ccc(CCNC(=O)[C@@H]2CCCN2C(=O)[C@H](N)Cc2ccccc2)cc1 [Example 14, D-Phe-Pro-p-NHCH2CH2C6H4NH2·HCl] | 47.6 µM | 7140 µM | 17900 µM | 21700 µM | > 1000 µM | 21,000 ng/mL |  | 
N=C(N)c1cccc(CNC(=O)[C@@H]2CCCN2C(=O)[C@H](N)Cc2ccccc2)c1 [Example 16, D-Phe-Pro-m-NHCH2C6H4C(NH)NH2·0.75HCl] | 1.03 µM | 196 µM | 50 µM | 588 µM | 833 µM | 650 ng/mL | 8,600 ng/mL | 8,500 ng/mL
N=C(N)c1ccc(CNC(=O)[C@@H]2CCCN2C(=O)[C@H]2CCCCN2)cc1 [Example 17, D-hPro-Pro-p-NHCH2C6H4C(NH)NH2·HCl] | 0.0303 µM | 20.4 µM | 0.263 µM | 41.7 µM | 294 µM | 26 ng/mL | 370 ng/mL | 400 ng/mL
N=C(N)c1ccc(CNC(=O)[C@@H]2CCCN2C(=O)[C@@H]2NCC[C@@H]3CCCC[C@@H]32)cc1 [Example 18, 1-Piq-Pro-p-NHCH2C6H4C(NH)NH2·2HCl] | 0.00556 µM | 4.76 µM | 0.0714 µM | 11.8 µM | 106 µM | 7 ng/mL | 79 ng/mL | 170 ng/mL
N=C(N)c1ccc(CNC(=O)[C@@H]2CCCN2C(=O)[C@H]2C[C@H]3CCCC[C@H]3CN2)cc1 [Example 19, D-3-Piq-Pro-p-NHCH2C6H4C(NH)NH2·3HCl] | 0.0909 µM | 7.14 µM | 0.0244 µM | 6.25 µM | 179 µM | 58 ng/mL | 300 ng/mL | 540 ng/mL
N=C(N)c1ccc(CNC(=O)CN(CCc2ccccc2)C(=O)[C@H]2CCCCN2)cc1 [Example 21, D-hPro-N(PhCH2CH2)Gly-p-NHCH2-C6H4C(NH)NH2·2HCl] | 0.278 µM | 1.61 µM | 1.04 µM | 32.3 µM | 500 µM | 160 ng/mL | 2,000 ng/mL | 1,000 ng/mL
N=C(N)c1ccc(CNC(=O)[C@@H]2C[C@H](Oc3ccccc3)CN2C(=O)[C@H]2CCCCN2)cc1 [Example 22, D-hPro-Pro(4-cis-PhO)-p-NHCH2-C6H4C(NH)NH2·2HCl] | 0.333 µM | 23.3 µM | 0.118 µM | 23.8 µM | 250 µM | 170 ng/mL | 2,300 ng/mL | 1,000 ng/mL
CCS(=O)(=O)N[C@H](Cc1ccccc1)C(=O)N1CCC[C@H]1C(=O)NCc1ccc(C(=N)N)cc1 [Example 23, EtSO2-D-Phe-Pro-p-NHCH2-C6H4C(=NH)NH2·HCl] | 0.0013 µM | 7.14 µM | 0.0476 µM | 2.27 µM | 3.23 µM | 7 ng/mL | 86 ng/mL | 120 ng/mL
CCS(=O)(=O)N[C@H](Cc1ccccc1)C(=O)N1CCC[C@H]1C(=O)NCc1cccc(C(=N)N)c1 [Example 24, EtSO2-D-Phe-Pro-m-NHCH2-C6H4C(=NH)NH2·HCl] | 1.28 µM | > 1000 µM | 33.3 µM | > 1000 µM | > 1000 µM | 1,000 ng/mL | 25,900 ng/mL | 25,000 ng/mL
